Results: paper PMC8921294, “Inhibition of mitochondrial LonP1 protease by allosteric blockade of ATP binding and hydrolysis via CDDO and its derivatives” (The Journal of Biological Chemistry, 2022)

Key:
[1] = molecular target: T1, LonP1 C576V (Homo sapiens, UniProt P36776, C576V); assay: Endpoint ATPase assay, LonP1 C576V; assay type: biochemical
T1 construct: hexa-histidine (N); made in house; host or cells: Rosetta 2 E. coli
T1 sequence (P36776 68-959 C576V): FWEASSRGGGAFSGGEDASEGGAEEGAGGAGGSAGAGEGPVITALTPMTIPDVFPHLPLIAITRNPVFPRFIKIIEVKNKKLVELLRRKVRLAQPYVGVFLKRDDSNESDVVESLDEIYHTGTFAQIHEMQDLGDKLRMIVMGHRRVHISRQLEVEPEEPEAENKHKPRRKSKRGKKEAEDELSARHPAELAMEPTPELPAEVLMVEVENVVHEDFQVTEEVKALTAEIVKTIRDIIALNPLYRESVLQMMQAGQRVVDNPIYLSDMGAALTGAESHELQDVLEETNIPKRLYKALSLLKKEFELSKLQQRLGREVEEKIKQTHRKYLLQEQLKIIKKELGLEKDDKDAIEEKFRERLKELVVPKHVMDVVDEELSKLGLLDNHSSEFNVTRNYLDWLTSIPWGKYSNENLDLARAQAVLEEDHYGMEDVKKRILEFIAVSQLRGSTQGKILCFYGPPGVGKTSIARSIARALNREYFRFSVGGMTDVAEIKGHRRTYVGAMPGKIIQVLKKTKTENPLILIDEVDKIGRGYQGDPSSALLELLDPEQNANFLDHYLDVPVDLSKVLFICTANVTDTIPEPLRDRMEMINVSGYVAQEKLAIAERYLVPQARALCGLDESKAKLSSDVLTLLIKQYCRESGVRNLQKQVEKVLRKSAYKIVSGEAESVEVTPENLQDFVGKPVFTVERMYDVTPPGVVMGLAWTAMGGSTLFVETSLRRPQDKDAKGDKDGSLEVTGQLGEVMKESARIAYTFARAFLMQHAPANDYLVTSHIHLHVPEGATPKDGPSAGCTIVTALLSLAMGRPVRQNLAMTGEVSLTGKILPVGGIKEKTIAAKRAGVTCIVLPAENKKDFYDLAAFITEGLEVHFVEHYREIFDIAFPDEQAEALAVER
Description: Human mitochondrial LonP1 and mutants lacking the predicted mitochondrial targeting sequence were fused to an N-terminal hexa-histidine affinity tag, expressed in Rosetta 2 E. Coli, and purified using a nickel agarose column as previously described ([72]) and protein concentration and buffer exchange carried out using Amicon Ultra centrifugal filtration. LonP1 mutant constructs were obtained from the PCR-based QuikChange Site-Directed Mutagenesis Kit.
ADP-Glo (Promega) assays were performed according to the manufacturer's protocols. Purified wild-type or mutant LonP1 (400 nM monomer), the 26S proteasome (3 nM), or no enzyme controls were preincubated in 96-well plates (60 min, 25 °C) with ten different concentrations of CDDO and its derivatives, TP-82, enoxolone (5 μM) or DMSO vehicle control in buffer (40 mM Tris-HCl (pH 7.5), 20 mM MgCl2, 0.1 mg/ml BSA and 5% DMSO). The 26S and 20S proteasome were also assayed at 0, 0.75, 1.5, 3, 6, and 12 nM in the absence of CDDO derivatives. […] Assay reagents were used to quench further ATPase activity and generate luminescence signals proportional to the concentration of ADP formed. Background (no enzyme control) luminescence values were subtracted, and resultant values were reported as a percentage of the no drug control (100%). […]

[2] = tested on: T2, 26S proteasome ATPase; assay: Endpoint ATPase assay, purified 26S proteasome; assay type: biochemical, human; conditions: 26S proteasome 3 nM, Fig. 4A
T2 construct: purified from human embryonic kidney cells (HEK293); purchased Boston Biochem Inc.-R&D Systems E-365; host or cells: HEK293
Excerpt: CDDO and CDDO-Methyl (CDDO-Me) were purchased from Cayman Chemical, CDDO-Imidazole (CDDO-Im) was purchased from Tocris. CDDO-anhydride ([20]) and TP-82 ([71]) were synthesized as reported. Other inhibitors in this study were purchased commercially: MG262 (Boston Biochem), bortezomib (LC Labs) and enoxolone (Cayman Chemical). Antibodies recognizing the following antigens were employed in this study: LonP1 (Proteintech, cat. 15440-1-AP), p53 (Calbiochem, cat. 0P43, lot # D00086815), cleaved PARP (Asp214) (BD Biosciences, cat. 552596), procaspase-3 monoclonal antibody (Transduction Laboratories, cat. C31720), actin (Santa Cruz, cat. sc-1615, lot # F0408), heme oxygenase 1 (Santa Cruz, cat. sc-136960, lot # B1516), TFAM kindly provided by Daniel Bogenhagen (Stony Brook University). Human 26S and 20S proteasome purified from human embryonic kidney cells (HEK293) were purchased commercially (Boston Biochem Inc.-R&D Systems, cat. E-365, lot # 35730210 and cat. E-360, lot # 16918510, respectively).
ADP-Glo (Promega) assays were performed according to the manufacturer's protocols. […] Assay reagents were used to quench further ATPase activity and generate luminescence signals proportional to the concentration of ADP formed. Background (no enzyme control) luminescence values were subtracted, and resultant values were reported as a percentage of the no drug control (100%). […]

- Fold increase in inhibition compared with WT [1]: 2.7
- IC50 ([1]; end-point ATPase assay, read-out: CDDO IC50): 5.2 ± 1.5 µM
- Inhibition of ATP hydrolysis by the 26S proteasome [2]: failed to inhibit
Compound: CC1(C)CC[C@]2(C(=O)O)CC[C@]3(C)[C@H](C(=O)C=C4[C@@]5(C)C=C(C#N)C(=O)C(C)(C)[C@@H]5CC[C@]43C)[C@@H]2C1 [CDDO, 2-cyano-3,12-dioxooleana-1,9(11)-dien-28-oic acid]
